According to US7772228B2, “Method for treatment of bacterial infections with once or twice-weekly administered rifalazil” (priority 1998, dated 2010):
In brackets after ≈: the same amount, converted by molar mass. Read-outs that look alike come from different tables or passages of the source.

Tests used:
M. tuberculosis [1] = settings: BACTEC, cited from earlier work; for MIC50 50% inhibition / MIC90 90% inhibition: thirty clinical isolates
[2] = in vivo; cited from earlier work
[3] = test system: M. tuberculosis strain Erdman; settings: cited from earlier work; for reduction of bacterial load in lungs and spleens, comparison of drugs: 20 mg/kg, five times per week for four weeks
[4] = test system: extracellular M. tuberculosis; settings: cited from earlier work
M. avium = settings: 18 strains, agar dilution; cited from earlier work
M. tuberculosis [5] = settings: 22 strains, agar dilution; cited from earlier work
[6] = test system: M. tuberculosis in human macrophages; settings: intracellular, cited from earlier work
[7] = Clinical trial 005, WBC, ANC and platelet counts in tuberculosis patients; format: in vivo, human; settings: INH daily
Description: (§1) Definite diagnosis and evaluation of treatment efficacy requires direct examination of sputum for the presence of M. tuberculosis. The extent of M. tuberculosis infection is determined by number of bacteria able to form colonies and is expressed as colony forming units. When the number of colony forming units (CFU) is high, the infection is unhindered. When the CFU decreases, the number of active M. tuberculosis bacteria decreases. The CFU, typically expressed as Log10, have therefore important diagnostic and treatment evaluative value.
The four tables 17-20 show hematology data which are separated according to Groups 1-4. The group treatment corresponds to those seen in Table 16. […] In particular, the ANC value is considered to be a very meaningful safety index as it directly relates to a patient's ability to fight infection.
(§2) The overall clinical studies and conditions were similar to those described in Example 1. Due to ethical considerations, there were no placebo (control) patients in this study. […] Both latest regimens were experimental and performed under IND permit from FDA.

M. tuberculosis [8] = test: Clinical trial 005, change in Log10 CFU/mL of sputum of tuberculosis patients; format: in vivo, human; settings: INH 400 mg daily, N 6
Description: Dosages of isoniazid and rifampin were adjusted to body weight of patients. […] When the patient's body weight was greater than 45 kg, isoniazid was administered as 600 mg/dose.
as §1
Dosages of isoniazid and rifampin depended on the patient's weight and were as above. The number of patients in each study group are presented as the N value.
as §2

Helicobacter pylori = test system: Helicobacter pylori; parameters: unit of the concentration uncertain; settings: time-kill, broth medium, 0.31 (unit uncertain); cited from earlier work

## CO[C@H]1/C=C/O[C@@]2(C)Oc3c(C)c(O)c4c(c3C2=O)C2=NC3(CCN(CC(C)C)CC3)NC2=C(NC(=O)/C(C)=C\C=C\[C@H](C)[C@H](O)[C@@H](C)[C@@H](O)[C@@H](C)[C@H](OC(C)=O)[C@@H]1C)C4=O [Rifabutin, rifabutin, reference compound]
M. tuberculosis [1]; reference strain H37Rv
  MIC: 0.016 µg/mL (≈ 0.0189 µM)
M. tuberculosis [1]; reference strain Kurono
  MIC: 0.016 µg/mL (≈ 0.0189 µM)
M. tuberculosis [1]
  MIC50 50% inhibition: 0.063 µg/mL (≈ 0.0744 µM)
  MIC90 90% inhibition: 8.0 µg/mL (≈ 9.44 µM)
[2]
  adverse reactions at high doses: generalized arthralgia and uveitis occurred
  incidence of neutropenia: significantly greater than in patients treated with placebo
  skin discoloration: < 1%
[3]
  reduction of bacterial load in lungs and spleens, comparison of drugs: No significant differences

## CO[C@H]1/C=C/O[C@@]2(C)Oc3c(C)c(O)c4c(O)c(c(/C=N/N5CCN(C)CC5)c(O)c4c3C2=O)NC(=O)/C(C)=C\C=C\[C@H](C)[C@H](O)[C@@H](C)[C@@H](O)[C@@H](C)[C@H](OC(C)=O)[C@@H]1C [Rifampin, rifampin, reference compound]
M. tuberculosis [1]; reference strain Kurono
  MIC: 0.063 µg/mL (≈ 0.0766 µM)
M. tuberculosis [1]
  MIC50 50% inhibition: 4.0 µg/mL (≈ 4.86 µM)
  MIC90 90% inhibition: >128.0 µg/mL
[4]; strain Atencio
  MBC: 0.25 µg/mL (≈ 0.304 µM)
  MIC: 0.25 µg/mL (≈ 0.304 µM)
[4]; strain Erdman
  MBC: 0.5 µg/mL (≈ 0.608 µM)
  MIC: 0.12 µg/mL (≈ 0.146 µM)
[4]; strain H37Rv
  MBC: 0.5 µg/mL (≈ 0.608 µM)
  MIC: 0.12 µg/mL (≈ 0.146 µM)
M. avium
  MIC90: 100 µg/mL (≈ 122 µM)
M. tuberculosis [5]
  MIC90: 100 µg/mL (≈ 122 µM)
[3]
  reduction of bacterial load in lungs and spleens, comparison of drugs: No significant differences
[6]; strain Atencio
  MBC: 0.5 µg/mL (≈ 0.608 µM)
  MIC: 0.25 µg/mL (≈ 0.304 µM)
[6]; strain Erdman
  MBC: 0.5 µg/mL (≈ 0.608 µM)
  MIC: 0.12 µg/mL (≈ 0.146 µM)
[6]; strain H37Rv
  MBC: 1.0 µg/mL (≈ 1.22 µM)
  MIC: 0.25 µg/mL (≈ 0.304 µM)

## NNC(=O)c1ccncc1 [INH, isoniazid]
[7]; Day 4
  ANC Max: 22.51 K/CU MM
  ANC Mean (SD): 7.62 K/CU MM
  ANC Med: 5.47 K/CU MM
  ANC Min: 3.79 K/CU MM
  Platelets Max: 431.70 K/CU MM
  Platelets Mean (SD): 309.38 K/CU MM
  Platelets Med: 305.56 K/CU MM
  Platelets Min: 153.70 K/CU MM
  WBC Max: 27.19 K/CU MM
  WBC Mean (SD): 10.88 K/CU MM
  WBC Med: 8.81 K/CU MM
  WBC Min: 6.37 K/CU MM
[7]; Day 8
  ANC Max: 9.32 K/CU MM
  ANC Mean (SD): 5.96 K/CU MM
  ANC Med: 5.22 K/CU MM
  ANC Min: 3.34 K/CU MM
  Platelets Max: 396.20 K/CU MM
  Platelets Mean (SD): 310.13 K/CU MM
  Platelets Med: 357.20 K/CU MM
  Platelets Min: 185.60 K/CU MM
  WBC Max: 12.06 K/CU MM
  WBC Mean (SD): 9.08 K/CU MM
  WBC Med: 8.63 K/CU MM
  WBC Min: 6.21 K/CU MM
[7]; Day 11
  ANC Max: 6.57 K/CU MM
  ANC Mean (SD): 5.29 K/CU MM
  ANC Med: 5.06 K/CU MM
  ANC Min: 4.17 K/CU MM
  Platelets Max: 447.50 K/CU MM
  Platelets Mean (SD): 336.10 K/CU MM
  Platelets Med: 354.20 K/CU MM
  Platelets Min: 208.10 K/CU MM
  WBC Max: 10.03 K/CU MM
  WBC Mean (SD): 8.29 K/CU MM
  WBC Med: 8.10 K/CU MM
  WBC Min: 7.27 K/CU MM
[7]; Day 15
  ANC Max: 8.84 K/CU MM
  ANC Mean (SD): 5.95 K/CU MM
  ANC Med: 6.04 K/CU MM
  ANC Min: 3.51 K/CU MM
  Platelets Max: 412.70 K/CU MM
  Platelets Mean (SD): 298.59 K/CU MM
  Platelets Med: 302.00 K/CU MM
  Platelets Min: 184.60 K/CU MM
  WBC Max: 12.40 K/CU MM
  WBC Mean (SD): 9.23 K/CU MM
  WBC Med: 8.49 K/CU MM
  WBC Min: 6.82 K/CU MM
[7]; Day 28
  ANC Max: 7.87 K/CU MM
  ANC Mean (SD): 5.63 K/CU MM
  ANC Med: 4.60 K/CU MM
  ANC Min: 4.41 K/CU MM
  Platelets Max: 398.80 K/CU MM
  Platelets Mean (SD): 297.27 K/CU MM
  Platelets Med: 266.00 K/CU MM
  Platelets Min: 197.00 K/CU MM
  WBC Max: 11.15 K/CU MM
  WBC Mean (SD): 8.31 K/CU MM
  WBC Med: 7.06 K/CU MM
  WBC Min: 6.70 K/CU MM
[7]; Day 42
  ANC Max: 7.2 K/CU MM
  ANC Mean (SD): 6.96 K/CU MM
  ANC Med: 6.96 K/CU MM
  ANC Min: 6.72 K/CU MM
  Platelets Max: 345.00 K/CU MM
  Platelets Mean (SD): 297.10 K/CU MM
  Platelets Med: 297.10 K/CU MM
  Platelets Min: 249.20 K/CU MM
  WBC Max: 9.23 K/CU MM
  WBC Mean (SD): 7.98 K/CU MM
  WBC Med: 7.98 K/CU MM
  WBC Min: 6.73 K/CU MM
[3]; four weeks treatment
  cell counts in lungs compared to early controls: significantly reduced cell counts in lungs
  cell counts in lungs compared to late controls: reduced cell counts in lungs
M. tuberculosis [8]
  Change from Sputum Baseline to Day 15, Max: −0.92 Log10 CFU/mL
  Change from Sputum Baseline to Day 15, Mean (SD): −1.58 Log10 CFU/mL
  Change from Sputum Baseline to Day 15, Med: −1.63 Log10 CFU/mL
  Change from Sputum Baseline to Day 15, Min: −2.23 Log10 CFU/mL

## CC1(C)S[C@@H]2[C@H](NC(=O)[C@H](N)c3ccc(O)cc3)C(=O)N2[C@H]1C(=O)O [amoxicillin, reference compound]
Helicobacter pylori
  decrease in CFU/mL after 24 hours: 1 log
